Patent US12583938B2, “Protein biomarker and uses thereof” (Daiichi Sankyo Co., Ltd., priority 2013, dated 2026)

Test system: Stage IIIb/IV NSCLC
Procedure: In both portions of the study, subjects received 150 mg of erlotinib orally once daily. […] Tumors were to be assessed every 6 weeks (±3 days) up to the first 24 weeks of the study, then every 12 weeks (±7 days) independent of treatment cycle.
An “HRG high” subject was defined as a subject with observed soluble HRG concentration of higher than 980 pg/mL, the Quartile 3 of the sample set. Soluble HRC concentration was measured by the improved ELISA method disclosed herein.
At the point of primary analysis, the treatment assignment for all subjects was unblinded to designated study personnel for analysis after data were reconciled and cleaned, and a snapshot of the clean database was created. To minimize potential bias, individual treatment assignment was not divulged to subjects or Investigators until study closure.
All efficacy analyses were performed on the full analysis set, which includes all subjects in the randomized analysis set who received at least one dose of randomized study medication. The primary efficacy endpoint was PFS. PFS is defined as the time from the date of randomization to the earlier of the dates of the first objective documentation of radiographic disease progression or death due to any cause. A subject who was alive with no objective documentation of (radiographic) disease progression by the data cut-off date was to be censored at the date of the last evaluable tumor assessment. The key secondary efficacy endpoint, overall survival, was defined as the time from the date of randomization to death due to any cause and was analyzed in the same manner as the primary efficacy endpoint PFS.
Kaplan-Meier curves were generated for PFS and used to calculate medians and 95% CIs for each treatment group.
The stratification factors included histology (Adenocarcinoma vs Non-Adenocarcinoma) and best response to prior therapy (CR/PR/SD vs PD). […] Cox's proportional hazards model with the same stratification factors used for the stratified log-rank test.
Unless otherwise indicated, tog-rank p-values and HRs for PFS and OS were based on the primary analysis adjusted for the stratification factors at randomization as described above.

[1] = Placebo + erlotinib (N = 71), Enrolled/Randomized Analysis Set
[2] = Placebo + erlotinib (N = 71), Full Analysis Set

C#Cc1cccc(Nc2ncnc3cc(OCCOC)c(OCCOC)cc23)c1 [erlotinib, reference compound]
On-Study Death [1]: 13 subjects
Primary Cause of On-Study Death: Adverse Event [1]: 5 subjects
Primary Cause of On-Study Death: Disease Progression [1]: 8 subjects
Primary Reason for Discontinuing Study Treatment: Death [1]: 4 subjects
Primary Reason for Discontinuing Study Treatment: Progressive Disease (Radiographic Progression) [1]: 50 subjects
OS: Subjects (%) with events [2]: 48 (67.6%) subjects (%)
OS: Subjects (%) without events (censored) [2]: 23 (32.4%) subjects (%)
PFS: Subjects (%) with events [2]: 59 (83.1%) subjects (%)
PFS: Subjects (%) without events (censored) [2]: 12 (16.9%) subjects (%)
Progression-Free Survival, Time to event, Median (Placebo + erlotinib (N = 71), Full Analysis Set, Kaplan-Meier Estimate): 1.6 months
Overall Survival, Time to event, Median (Placebo + erlotinib (N = 71), Full Analysis Set, Kaplan-Meier Estimate, preliminary): 7.2 months
number of subjects with the response being CR/PR (placebo + erlotinib): 4 (5.6%) subjects (%)
